# “Also recorded” adds a separate entry of the source.
# Columns and labels:
# TET2 = details: cited from earlier work
# [1] = tested on: high fat diet (HFD)-induced diabetic mice; test: Feeding of HFD-induced diabetic mice; assay type: in vivo, mouse; details: drinking water, two weeks
# Description: It has previously been shown that TET3 expression is aberrantly elevated in the livers of humans and mice with type 2 diabetes and that liver-specific, siRNA-mediated TET3 knockdown improves glucose homeostasis both in dietary and genetic mouse models of diabetes (Li D. et al., 2020, Nature Communications, 11:342). Bobcat339 (4-Amino-1-[1,1′-biphenyl]-3-yl-5-chloro-2(1H)-pyrimidinone) is a synthetic cytosine derivative capable of binding competitively with 5mC to the active sites of [COMPOUND LEFT OUT] and inhibits their enzymatic activity in cultured neuronal cells (Chua G. N. L. et al., 2019, ACS Medicinal Chemistry Letters, 10:180-185). Although not bound by any particular theory, it was hypothesized that Bobcat339 has an anti-diabetic effect owing to its ability to inhibit [COMPOUND LEFT OUT]. Thus, the present studies employed high fat diet (HFD)-induced diabetic mice that were treated with Bobcat339 in drinking water for two weeks. […] Thus, nondiabetic mice fed on regular chow were treated with Bobcat339 in drinking water. Four days later, ARCs were isolated from ad libitum-fed mice and analyzed. […] In light of these observations, additional studies began to explore [COMPOUND LEFT OUT] in AgRP neurons for a potential role in the control of feeding and energy metabolism.
# AGRP, NPY, and VGAT = test: AGRP, NPY and VGAT expression in the ARC of mice; assay type: in vivo, mouse; details: Bobcat339 vs. vehicle mice
# Description: The GFP construct used for tagging AgRP neurons labels almost exclusively the perikaryon. The presence of AGRP, NPY, and VGAT outside the perikarya reflected the fact that these fast-firing neurons transport their neuromodulatory products rabidly to the neuronal processes.
# Bobcat339 powder (Sigma-Aldrich, SML2611) was freshly dissolved in DMSO (vehicle) at a concentration of 50 mg/mL and filtered through a 0.22 micron. It was further diluted with 1×PBS to a final concentration of 0.5 mg/mL before injections. Mice were injected intraperitoneally with Bobcat339 at 1 mg/kg, 2.5 mg/kg, or 4 mg/kg.
# Total RNAs were extracted from neuronal cells or homogenized hypothalamic arcuate nucleus tissue samples using PureLink RNA Mini Kit (Ambion, 12183025). cDNA was synthesized using PrimeScript RT Reagent Kit in a 20 μl reaction containing 0.5-1 μg of total RNA. Real-time quantitative PCR was performed in a 15 μl reaction containing 0.5-1 μl of cDNA using SsoAdvanced Universal SYBR Green Supermix in a Bio-Rad iCycler. Specificity was verified by melting curve analysis. The Ct values of each sample were used in the post-PCR data analysis. […]
# The immunofluorescence for brain slices was conducted using previous methods (18). […] The sections were coverslipped and scoped using a Keyence BZ-X700 fluorescence microscope. The fluorescence signals from GFP in AgRP neurons were detected without immunostaining.
# TET3 = TET3 protein in human MDMs; assay type: cell-based; details: 24 h
# Description: For siRNA transfection in a 24-well plate scale of MDMs, NT siRNA or TET3 siRNA (4392420/s47239, Ambion) was mixed with 25 μL of OPTI-MEM by gentle pipetting. In parallel, 1.5 μL of Lipofectamine RNAiMAX was mixed with 25 μL of OPTI-MEM by gentle pipetting. Following 5 min of incubation at RT, the resulting 50 μl of transfection solution was added to each well of cells containing 450 μL of growth media.
# Bobcat339 Treatment of Cultured Cells Bobcat339 powder (Sigma-Aldrich, SML2611) was freshly dissolved in DMSO at a concentration of 5 mM and filtered through a 0.22 micron. […]
# For cultured MDMs, cells were primed with CM-Endo or TGF-β1 (PeproTech, 100-21) for 36-48 h (to increase TET3 expression) before Bobcat339 treatment.
# Cells were homogenized in situ using a pipette tip in 2×SDS-sample buffer with 10% β-mercaptoethanol at RT followed by heating at 100 °C for 5 min with occasional vortexing. The samples were loaded onto a 4-15% gradient SDS gel (Bio-rad, 456-8086) (10 μL/well) and transferred to nitrocellulose membranes, followed by Western blot analysis. […]
smiles,measurement,setting,value
"Nc1nc(=O)n(-c2cccc(-c3ccccc3)c2)cc1Cl [Bobcat339, 4-Amino-1-[1,1′-biphenyl]-3-yl-5-chloro-2(1H)-pyrimidinone]",inhibitory activity against TET2,TET2; in the absence of contaminating copper (II),negligible inhibitory activity
same,inhibition of enzymatic activity of TET2,TET2; initially reported,inhibit the enzymatic activity
same,feeding,[1],became hyperphagic
same,"AGRP, NPY, and VGAT protein in the ARC","AGRP, NPY, and VGAT","increased productions of AGRP, NPY, and VGAT; also recorded: a marked increase in their expressions"
same,"Agrp, Npy and Slc32a1 mRNA in the ARC","AGRP, NPY, and VGAT","Increases in the mRNA levels of Agrp, Npy and Slc32a1; also recorded: increased expressions of Agrp, Npy, and Slc32a1"
same,TET3 protein level,TET3; 10 μM,a decrease in TET3 expression; also recorded: decreased the level of TET3 protein
same,steady-state level of TET3 protein,TET3; 10 mM (so in the source),a decrease in the steady-state level of TET3 protein

# From patent US20260355199A1, “COMPOSITIONS AND METHODS FOR TREATING OR PREVENTING NONALCOHOLIC STEATOHEPATITIS (NASH), ANOREXIA, DEPRESSION, ENDOMETRIOSIS, AND OTHER DISEASES OR DISORDERS” (priority 2022, published 2026)
